The text below walks through data of patent publication US5599806A, “Hydrazino and hydroxyamino-14-β-hydroxyandrostane derivatives active on the cardiovascular system processes for their preparation and pharmaceutical compositions containing same” (Sigma-Tau Industrie Farmaceutiche Riunite S.p.A., priority 1994, dated 1997).

The test system of assay [1] is Na^+, K^+ -ATPase. Conditions: reported in literature / other filings; cited from earlier work.
For assay [2], the target named is Na^+, K^+ -ATPase receptor. In words: displacement of the specific ^3 H-ouabain binding from the Na^+, K^+ -ATPase receptor. The note with it: ^3 H-ouabain displacement, purified Na^+.
Source text: a) displacement of the specific ^3 H-ouabain binding from the Na^+, K^+ -ATPase receptor purified according to Jorghensen (Jorghensen P., BBA, 1974, 356, 36) and Erdmann (Erdmann E. et al., Arzneim. Forsh., 1984, 34, 1314);
The target in assay [3] is T1, purified Na^+, K^+ -ATPase (Canis lupus familiaris, UniProt P50997).
T1 construct: from tissue
In words: inhibition of the activity of the purified Na^+, K^+ -ATPase (hydrolysis of ^32 P-ATP). Format: biochemical. The source says: To test the affinity for the receptor site of the Na^+, K^+ -ATPase and the inhibition of the activity of the enzyme, the following tests were used:
b) inhibition of the activity of the purified Na^+, K^+ -ATPase measured as % of hydrolysis of ^32 P-ATP in the presence and in the absence of the tested compound (Doucet A. et al., Am. J. Physiol., 1986, 251, F851)

Assay [4] has as its system spontaneous hypertensive rats (MHS). The assay is described as follows: effect of 5 week-treatment in spontaneous hypertensive rats (MHS) on the development of hypertension (SBP and HR, tail cuff method). The format is in vivo, rat. The note with it: 5 weeks, in Methocel 0.5% w/v; for SBP: controls 170 +/- 5.5; for HR: controls 378 +/- 12.0. The protocol: Systolic blood pressure (SBP) and hear rate (HR) were measured, by the tail cuff method, in young prehypertensive male rats (MHS or SHR) strains before the development of hypertension (4 weeks of age) for recording the basal values of SBP. Groups of 7 rats were formed and subdivided in control and treated groups.
The compound, suspended in Methocel 0.5% (w/v), was orally given daily for at least 5 weeks to the treated groups. The control group received only Methocel.
SBP and HR were measured weekly 6 and 24 hrs after treatment. After 5 weeks of treatment, when hypertension was fully developed in the control group (9 weeks of age), washout was started for at least one week, to verify whether the treatment maintained blood pressure low or reestablished the basal values.
(Takeda K. et al., Japan J. Pharmacol., 1979, 29, 171; Takeda K. et al. Japan J. Pharmacol., 1982, 32, 283; Richer C. et al. Eur. J. Pharmacol, 1978, 47,393).

For assay [5] the following is noted: reported in literature; cited from earlier work.
Setting [6] is: hydrolysis of ^32 P-ATP, purified Na^+, K^+ -ATPase, read-out: Inhibitory Activity (-log IC50) (converted).

Where two headings read alike, the source gives them in different places.

On to `C[C@]12CC[C@H](O)C[C@H]1CC[C@@H]1[C@@H]2CC[C@]2(C)C(=NNC(=N)N)CC[C@]12O` [17-guanidinoimino-5β-androstane-3β,14β-diol], for which the “inhibition of Na^+, K^+ -ATPase” value in assay [1] is “weak inhibitors of Na^+, K^+ -ATPase”.

For `CN(C)CCONC[C@H]1CC[C@]2(O)[C@@H]3CC[C@@H]4C[C@@H](OCCCN)CC[C@]4(C)[C@H]3CC[C@]12C` [Comp. I-bb, 3β-(3-Aminopropoxy)-17β-(2-dimethylaminoethoxyamino)methyl-5β-androstane-14β-ol], the “Binding ^3 H-Ouab. Displacement (-log IC50)” value in assay [2] was 6.3. For the same compound, in assay [3], the IC50 (usually the concentration at which inhibition is half-maximal) was 31.6 µM. Besides, in assay [4] (1 mg/Kg/os daily), the SBP is 153 +/- 6.2 mm Hg and the HR is 367 +/- 14.3 beats/min. In assay [4] (10 mg/Kg/os daily), the SBP was 150 +/- 4.2 mm Hg and the HR was 375 +/- 12.1 beats/min.

For the compound `CN(C)CCONC[C@H]1CC[C@]2(O)[C@@H]3CC[C@@H]4C[C@@H](O)CC[C@]4(C)[C@H]3CC[C@]12C` [Comp. I-am, 17β-(2-Dimethylaminoethoxyamino)methyl-5β-androstane-3β,14β-diol], the “Binding ^3 H-Ouab. Displacement (-log IC50)” value in assay [2] is recorded as 6.1. In assay [3] (setting [6]), the IC50 is 50.1 µM. Also, in assay [4] (1 mg/Kg/os daily), the SBP is listed as 152 +/- 5.3 mm Hg and the HR is 365 +/- 10.1 beats/min. Besides, in assay [4] (10 mg/Kg/os daily), the SBP was 149 +/- 4.5 mm Hg and the HR is 370 +/- 14.7 beats/min.

Consider `CN(C)CCONCC=C[C@H]1CC[C@]2(O)[C@@H]3CC[C@@H]4C[C@@H](O)CC[C@]4(C)[C@H]3CC[C@]12C` [Comp. I-au, 17β-[3-(2-Dimethylaminoethoxyamino)-1-propenyl]-5β-androstane-3β,14β-diol], for which the “Binding ^3 H-Ouab. Displacement (-log IC50)” value in assay [2] came out at 5.9. Further, the IC50 in assay [3] (setting [6]) was 39.8 µM.

Turning to `C[C@]12CC[C@H](O)C[C@H]1CC[C@@H]1[C@@H]2CC[C@]2(C)[C@@H](CNOCCN)CC[C@]12O` [Comp. I-aj, 17β-(2-Aminoethoxyamino)methyl-5β-androstane-3β,14β-diol], the “Binding ^3 H-Ouab. Displacement (-log IC50)” value in assay [2] came to 7.2. For the same compound, it took 1 µM to reach half-maximal inhibition in assay [3] (IC50). In assay [4] (0.1 mg/Kg/os daily), the SBP is given as 150 +/- 4.1 mm Hg and the HR is recorded as 372 +/- 11.7 beats/min.

As to `C[C@]12CC[C@H](O)C[C@H]1CC[C@@H]1[C@@H]2CC[C@]2(C)[C@@H](CNO)CC[C@]12O` [Comp. I-ah, 17β-Hydroxyaminomethyl-5β-androstane-3β,14β-diol], the “Binding ^3 H-Ouab. Displacement (-log IC50)” value in assay [2] is 5.0. The same compound gave an IC50 in assay [3] of 79.4 µM.

Regarding `CN1CCN=C1NNC[C@H]1CC[C@]2(O)[C@@H]3CC[C@@H]4C[C@@H](O)CC[C@]4(C)[C@H]3CC[C@]12C` [Comp. I-ac, 17β-[2-(1-Methyl-2-imidazolin-2-yl)]hydrazinomethyl-5β-androstane-3β,14β-diol], the “Binding ^3 H-Ouab. Displacement (-log IC50)” value in assay [2] came out at 6.0. The same compound had an IC50 in assay [3] of 10 µM.

Regarding `CC(NOCCN(C)C)[C@H]1CC[C@]2(O)[C@@H]3CC[C@@H]4C[C@@H](O)CC[C@]4(C)[C@H]3CC[C@]12C` (stereo partly drawn) [Comp. I-ar, 20β-(2-Dimethylaminoethoxyamino)-5β-pregnane-3β,14β-diol], the “Binding ^3 H-Ouab. Displacement (-log IC50)” value in assay [2] turned out to be 5.7. This compound also had an IC50 in assay [3] of 63.1 µM.

`CC(NNC(=N)N)[C@H]1CC[C@]2(O)[C@@H]3CC[C@@H]4C[C@@H](O)CC[C@]4(C)[C@H]3CC[C@]12C` (stereo partly drawn) [Comp. I-ag, 20-(2-Amidino)hydrazino-5β-pregnane-3β,14β-diol]: in assay [2], the “Binding ^3 H-Ouab. Displacement (-log IC50)” value is given as 6.5. Inhibition in assay [3] was half-maximal at 6.31 µM (IC50).

For `CN(C)CCONC[C@@]1(O)CC[C@]2(O)[C@@H]3CC[C@@H]4C[C@@H](O)CC[C@]4(C)[C@H]3CC[C@]12C` [Comp. I-ba, 17β-(2-Dimethylaminoethoxyamino)methyl-5β-androstane-3β,14β,17α-diol], the “Binding ^3 H-Ouab. Displacement (-log IC50)” value in assay [2] is 5.2. In assay [3], the IC50 is 100 µM.

On to `CN(C)CCNC(=N)NNC[C@H]1CC[C@]2(O)[C@@H]3CC[C@@H]4C[C@@H](O)CC[C@]4(C)[C@H]3CC[C@]12C` [Comp. I-ae, 17β-{2-[N-(2-Dimethylaminoethyl)amidino]}hydrazinomethyl-5β-androstane-3β,14β-diol], for which, in assay [2], the “Binding ^3 H-Ouab. Displacement (-log IC50)” value was found to be 5.4. The compound further showed an IC50 in assay [3] of 31.6 µM.

For the compound `C[C@]12CC[C@H](O)C[C@H]1CC[C@@H]1[C@@H]2CC[C@]2(C)[C@@H](CNNC(=N)Nc3ccccc3)CC[C@]12O` [Comp. I-af, 17β-[2-(N-Phenylamidino)]hydrazinomethyl-5β-androstane-3β,14β-diol], the “Binding ^3 H-Ouab. Displacement (-log IC50)” value in assay [2] is 5.0. The compound further gave an IC50 in assay [3] of 63.1 µM.

With `C[C@]12CC[C@H](O)C[C@H]1CC[C@@H]1[C@@H]2CC[C@]2(C)[C@@H](C=CCNNC(=N)N)CC[C@]12O` [Comp. I-as, 17β-{3-[2-(Amidino)]hydrazino-1-propenyl}-5β-androstane-3β,14β-diol], the “Binding ^3 H-Ouab. Displacement (-log IC50)” value in assay [2] was 6.0. The compound further showed an IC50 in assay [3] of 31.6 µM.

As for `CN(C)CCONCC[C@H]1CC[C@]2(O)[C@@H]3CC[C@@H]4C[C@@H](O)CC[C@]4(C)[C@H]3CC[C@]12C` [Comp. I-ax, 17β-[2-(2-Dimethylaminoethoxyamino)ethyl]-5β-androstane-3β,14β-diol], in assay [2], the “Binding ^3 H-Ouab. Displacement (-log IC50)” value is on record as 5.7. Moreover, the IC50 in assay [3] (setting [6]) was 39.8 µM.

Take `C[C@]12CC[C@H](O)C[C@H]1CC[C@@H]1[C@@H]2CC[C@]2(C)[C@@H](C=NNC(=N)N)CC[C@]12O` [17β-guanidinoiminomethyl-5β-androstane-3,β,14β-diol]: the “inhibition of Na^+, K^+ -ATPase” value in assay [1] is “weak inhibitors of Na^+, K^+ -ATPase”. The positive inotropic activity result in assay [5] was “weak positive inotropic agents”.

On to `CN(C)CCONCCC[C@H]1CC[C@]2(O)[C@@H]3CC[C@@H]4C[C@@H](O)CC[C@]4(C)[C@H]3CC[C@]12C` [Comp. I-ay, 17β-[3-(2-Dimethylaminoethoxyamino)propyl]-5β-androstane-3β,14β-diol], for which the “Binding ^3 H-Ouab. Displacement (-log IC50)” value in assay [2] was found to be 5.8. For the same compound, the IC50 in assay [3] (setting [6]) was 39.8 µM.

As to `CN(C)CCONC[C@H]1CC[C@]2(O)[C@@H]3CC[C@@H]4C[C@@H](OCCN5CCCC5)CC[C@]4(C)[C@H]3CC[C@]12C` [Comp. I-bd, 3β-[2-(1-Pyrrolidinyl)ethoxy]-17β-(2-dimethylaminoethoxyamino)methyl-5β-androstane-3β,14β-diol], the “Binding ^3 H-Ouab. Displacement (-log IC50)” value in assay [2] is 6.2. Moreover, 31.6 µM corresponded to half-maximal inhibition in assay [3] (IC50).

In the case of `CN(C)CCON(C)C[C@H]1CC[C@]2(O)[C@@H]3CC[C@@H]4C[C@@H](O)CC[C@]4(C)[C@H]3CC[C@]12C` [Comp. I-ap, 17β-[N-Methyl-N-(2-dimethylaminoethoxy)amino]methyl-5β-androstane-3β,14β-diol], in assay [2], the “Binding ^3 H-Ouab. Displacement (-log IC50)” value stood at 5.0. In addition, the IC50 in assay [3] (setting [6]) was 100 µM.
